From patent publication US10946024B2, “Method for treating cancer” (Epizyme, Inc., priority 2014, dated 2021)

Tests used:
Format in all cases: cell-based, human
SW982 cells = test: Adherent cell line long-term (14-day) proliferation assay, CellTiter-Glo; settings: SW982, 14-day long-term proliferation assay
Procedure: (§1) 96-well plating for 7 day assay: For each adherent cell line, plated cells in a volume of 100 μL in 96-well plates, to be treated in triplicate, either in the evening (to treat with compound the following day) or in morning (to treat with compound in the evening), to allow cells to attach to plates before compound treatment.
(§2) 6-well plates to be split for 7-14 day assay: Plated 2 mL of cells at the correct density in each well of the 6-well plate. Calculated the correct density from the 96-well plate growth curve by multiplying the 96-well density by 30. The factor 30 came from growth area of the 6-well plate divided by the growth area of the 96-well plate (9.5 cm^2/0.32 cm^2=29.7, rounded up to 30), which corresponds to 30-fold more surface area in a 6-well vs. a 96-well plate.
(§3) Day 0: Treated with compound or DMSO by removing media and adding back either 100 μL (for 96-well plate) or 2 mL (for 6-well plate) media with the correct dilutions of compound/DMSO. Table 1 includes an example of 96-well plate map. Plates were incubated for 96 hours.
(§4) Read one 96-well plate with CellTiter-Glo® for a Day 0 reading (media change not necessary for this plate).
(§5) Day 4: Read one 96-well plate with CellTiter-Glo® for a Day 4 reading (media change not necessary for this plate before reading). Replaced media with fresh media containing compound on Day 4 in 96-well plates and 6-well plates.
(§6) Day 7: read final 96-well plate with CellTiter-Glo®.
(§7) Counted individual wells of 6-well plates, and replated cells to initial plating density in 96-well plates, as described above.
(§8) Repeated steps for Days 0-7 for Days 7-14 of the proliferation assay.
(§9) Particularly, approximately 12 hours before compound treatment, HS-SY-II or SW982 cells were plated at the density of 24,000 cells/well and 7,500 cells/well, respectively in 6-well plates. On day 0, cells were treated with either DMSO or compound starting at 10 μmol/L and decreasing in fourfold dilutions. On day 7, the cells in 6-well plates were trypsinized, counted by TC10 automated cell counter (Bio-Rad, Richmond, Calif.) and replated at the density of 800 cells/well and 250 cells/well for HS-SY-II and SW982, respectively in 96-well plates in triplicate. The cells were allowed to adhere to the plate overnight, and treated with either DMSO or compound as on Day 0. On days 0, 7, 11, and 14, cell viability was determined by CellTiter-Glo® Luminescent Cell Viability Assay (Promega) with EnVision 2103 Multilabel Reader (Perkin-Elmer, Wellesley, Mass.). Compound/media was changed with new one on Day 4 and 11. The ratios of the measured values on Days 7, 11, and 14 to that of day 7 were used to plot proliferation from day 7 to day 14, and to calculate the IC50 values on Day 14. […]

HS-SY-II cells = test: as above; settings: 14-day long-term proliferation assay
Procedure: as §1, §2, §3, §4, §5, §6, §7, §8, §9

[1] = tested on: ATF3, EGR1 expression in SW982 cells; test: Gene expression changes in vitro by RT-PCR, normalized to GAPDH; set-up: key to EGR1 expression change, significance 0 uM vs.: *: Asterisks mean significant changes compared to levels of 0 μM-treated groups.; **: Asterisks mean significant changes compared to levels of 0 μM-treated groups.; ***: Asterisks mean significant changes compared to levels of 0 μM-treated groups.; ****: Asterisks mean significant changes compared to levels of 0 μM-treated groups
Procedure: (§10) HS-SY-II and SW982 cells were treated with EZH2 inhibitors (Compound A or EPZ-011989) and collected at the indicated time points. Total RNA isolation and cDNA synthesis were performed using the TaqMan Gene Expression Cells-to-CT kit (4399002, Life technologies) according to the manufacturer's protocol. ATF3, EGR1, CDKN2A and GAPDH expression were analyzed by using the TaqMan Gene Expression Assays (Life technologies, 4331182) and the TaqMan Probes (Hs00231069_m1, Hs00152928_m1, Hs00233365_m1, and Hs99999905_m1, respectively).

[2] = tested on: ATF3, EGR1, CDKN2A expression in HS-SY-II cells; test: as above; set-up: key to ATF3 expression change, significance 0 uM vs. / EGR1 expression change, significance 0 uM vs. / CDKN2A expression change, significance 0 uM vs.: *: Asterisks mean significant changes compared to levels of 0 μM-treated groups.; **: Asterisks mean significant changes compared to levels of 0 μM-treated groups.; ***: Asterisks mean significant changes compared to levels of 0 μM-treated groups.; ****: Asterisks mean significant changes compared to levels of 0 μM-treated groups; settings: for ATF3 expression change, significance 0 uM vs. / CDKN2A expression change, significance 0 uM vs. / EGR1 expression change, significance 0 uM vs.: HS-SY-II
Procedure: as §10

Compound | sensitivity of cell proliferation (SW982 cells) | sensitivity of cell proliferation (HS-SY-II cells) | EGR1 expression change, significance 0 uM vs. ([1]; SW 982, 0.1 uM, day 2) | EGR1 expression change, significance 0 uM vs. ([1]; SW 982, 0.1 uM, day 4) | EGR1 expression change, significance 0 uM vs. ([1]; SW 982, 1 uM, day 7) | ATF3 and EGR1 expression ([1]; SW982 in vitro culture) | ATF3 and EGR1 expression ([2]; HS-SY-II in vitro culture) | CDKN2A expression ([2]; HS-SY-II in vitro culture) | ATF3 expression change, significance 0 uM vs. ([2]; 0.1 uM, day 4) | CDKN2A expression change, significance 0 uM vs. ([2]; 0.1 uM, day 4) | EGR1 expression change, significance 0 uM vs. ([2]; 0.1 uM, day 4) | ATF3 expression change, significance 0 uM vs. ([2]; 1 uM, day 2) | CDKN2A expression change, significance 0 uM vs. ([2]; 1 uM, day 2) | ATF3 expression change, significance 0 uM vs. ([2]; 1 uM, day 4) | CDKN2A expression change, significance 0 uM vs. ([2]; 1 uM, day 4) | EGR1 expression change, significance 0 uM vs. ([2]; 1 uM, day 4) | ATF3 expression change, significance 0 uM vs. ([2]; 1 uM, day 7) | CDKN2A expression change, significance 0 uM vs. ([2]; 1 uM, day 7) | EGR1 expression change, significance 0 uM vs. ([2]; 1 uM, day 7)
CCN(c1cc(-c2ccc(CN3CCOCC3)cc2)cc(C(=O)NCc2c(C)cc(C)[nH]c2=O)c1C)[C@H]1CC[C@H](N(C)C)CC1 [Compound E] | did not | high sensitivity | – | – | – | – | – | – | – | – | – | – | – | – | – | – | – | – | –
CCN(c1cc(C#CCN2CCOCC2)cc(C(=O)NCc2c(C)cc(C)[nH]c2=O)c1C)C1CCC(N(C)CCOC)CC1 (stereo not shown) [EPZ-011989] | – | – | * | ** | * | not in SW982 | upregulated | Dose- and time-dependent CDKN2A upregulation | ** | **** | ** | * | *** | * | **** | ** | ** | **** | **
